Results: patent EP4653437A2 (Innovo Therapeutics Inc., priority 2023, dated 2024)
Like-named read-outs stand apart in the source and are kept apart here.

Columns and labels:
human 15-PGDH = target: T1, human 15-PGDH (Homo sapiens, UniProt P15428); experiment: Evaluation of 15-PGDH inhibitory activity (fluorescence enzyme assay, NAD+/PGE2); assay type: biochemical; conditions: human 15-PGDH enzyme, fluorescence Vmax
T1 construct: purchased R&D System 5660-DH
T1 sequence (P15428 1-266): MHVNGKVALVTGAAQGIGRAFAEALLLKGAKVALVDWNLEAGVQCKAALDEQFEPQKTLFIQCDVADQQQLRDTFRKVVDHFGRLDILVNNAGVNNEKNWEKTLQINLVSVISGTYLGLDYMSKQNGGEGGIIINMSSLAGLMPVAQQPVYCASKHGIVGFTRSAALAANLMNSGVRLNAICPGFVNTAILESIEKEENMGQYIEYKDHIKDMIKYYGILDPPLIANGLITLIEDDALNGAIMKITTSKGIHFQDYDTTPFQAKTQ
Experimental: 15-PGDH inhibition activity of Example compounds was measured as follows. 6.7 ng of human 15-PGDH (R&D System# 5660-DH) enzyme (10 µL) was added to a black 96 well plate, 60 µL of buffer (50 mM Tris-HCl, pH 7.5, 0.01% Tween 20) was added, and 10 µL of 200 µM β-Nicotinamide adenine dinucleotide sodium salt (Sigma, Cat# N0632-5G) was added. 10 µL of (10x) compound solution in DMSO was added and reacted for 10 minutes at room temperature.

A549 cells = experiment: Measurement of PGE2-increasing activity in A549 cells (IL-1β stimulated, PGE2 quantified in supernatant); assay type: cell-based; conditions: Homo sapiens, read-out: Increased PGE2 production in A549 cells
Experimental: A549 cells were prepared at a cell number of 1 x 10^5/mL in F12K medium containing 10% FBS (Fetal Bovine Serum), and 2 x 10^4/200 µL was added to each well of a 96-well cell culture plate, and then cultured in an incubator with 5% CO2 at 37 °C for 24 hours. After the culture was complete and all F12K medium was removed, all wells were washed once with 100 µL of PBS, and treated with 160 µL of serum-free F12K medium. Then, 20 µL of IL-1β diluted 10-fold to a concentration of 1 ng/mL in serum-free F12K medium was treated to wells to be treated with IL-1β, and 20 µL of serum-free F12K medium was treated to wells not treated with IL-1β. For the wells to be treated with the compound, 20 µL of the compound dissolved in 100% DMSO was diluted to a concentration 10 times of the desired compound concentration in serum-free F12K medium so that the final DMSO concentration treated to the cells was 0.1%, and for the wells not to be treated with the compound, 20 µL of DMSO diluted in serum-free F12K medium so that the final DMSO concentration treated to the cells was 0.1% was treated. In order to confirm the increase or decrease in the secretion amount of PGE2 in the supernatant collected after culturing for 24 hours in an incubator with 5% CO2 at 37 °C, PGE2 was quantified using the Prostaglandin E2 Parameter (SKGE004B).

[1] = 24 h, concentration of 1 µM of each compound, IL-1β treated A549 cells

Row | SMILES | IC50 (human 15-PGDH) | fold induction at 1 µM (A549 cells; [1]) | fold induction at 1 µM (A549 cells; A549, 24 h)
1 | O=C(c1cnn2c(-c3ccccc3)cccc12)N1C2CCC1CC2 [Example 229, (7-azabicyclo[2.2.1]heptan-7-yl)(7-phenylpyrazolo[1,5-a]pyridin-3-yl)methanone] | ≤ 100 nM | – | > 1.5
2 | O=C(c1cnn2c(NCCc3ccc(Cl)cc3)cccc12)N1CCCCC1 [Example 242, [7-[2-(4-chlorophenyl)ethylamino]pyrazolo[1,5-a]pyridin-3-yl]-(1-piperidyl)methanone] | ≤ 100 nM | < 1.5 | –
3 | O=C(c1cnn2c(-c3cnc(-c4nnc(C(F)(F)F)o4)c(F)c3)cccc12)N1CCCCC1 [Example 394, [7-[5-fluoro-6-[5-(trifluoromethyl)-1,3,4-oxadiazol-2-yl]-3-pyridyl]pyrazolo[1,5-a]pyridin-3-yl]-(1-piperidyl)methanone] | ≤ 100 nM | > 1.5 | –
4 | O=C(c1cnn2c(-c3ccc(N4CCOC4=O)nc3)cccc12)N1CCCC(C(F)(F)F)C1 (stereo not shown) [Example 339, 3-(5-(3-(3-(trifluoromethyl)piperidine-1-carbonyl)pyrazolo[1,5-a]pyridin-7-yl)pyridin-2-yl)oxazolidin-2-one] | ≤ 100 nM | > 1.5 | –
5 | Cc1cc(-c2ccnc(Cl)c2)c2ncc(C(=O)N3CCCCC3)n2c1 [Example 166, (8-(2-chloropyridin-4-yl)-6-methylimidazo[1,2-a]pyridin-3-yl)(piperidin-1-yl)methanone] | 100 to 1000 nM | – | –
6 | O=C(c1cnc2c(-c3ccc([N+](=O)[O-])cc3)cccn12)N1CCCCC1 [Example 163, (8-(4-nitrophenyl)imidazo[1,2-a]pyridin-3-yl)(piperidin-1-yl)methanone] | ≤ 100 nM | – | –
7 | O=C(c1cc2nc(-c3ccc4c(c3)OCCO4)ccc2[nH]1)N1CCCCC1 [Example 178, (5-(2,3-dihydrobenzo[b][1,4]dioxin-6-yl)-1H-pyrrolo[3,2-b]pyridin-2-yl)(piperidin-1-yl)methanone] | 100 to 1000 nM | – | –
8 | O=C(c1cc2c(-c3ccc4c(c3)OCO4)nccc2[nH]1)N1CCCCC1 [Example 174, (4-(benzo[d][1,3]dioxol-5-yl)-1H-pyrrolo[3,2-c]pyridin-2-yl)(piperidin-1-yl)methanone] | > 1000 nM | – | –
9 | O=C(c1cc2nc(-c3ccc(O)c(Cl)c3)ccc2[nH]1)N1CCCCC1 [Example 186, (5-(3-chloro-4-hydroxyphenyl)-1H-pyrrolo[3,2-b]pyridin-2-yl)(piperidin-1-yl)methanone] | 100 to 1000 nM | – | –
10 | O=C(c1cc2nc(-c3ccc4c(c3)OCO4)ncc2[nH]1)N1CCCCC1 [Example 187, (2-(benzo[d][1,3]dioxol-5-yl)-5H-pyrrolo[3,2-d]pyrimidin-6-yl)(piperidin-1-yl)methanone] | 100 to 1000 nM | – | –
11 | O=C(c1cnn2c(-c3ccccc3)cccc12)N1CCCCC1 [Example 1] | ≤ 100 nM | – | –
12 | Cc1nn(C)c(C)c1S(=O)(=O)Nc1cccc2c(C(=O)N3CCCCC3)cnn12 [Example 240, 1,3,5-trimethyl-N-[3-(piperidine-1-carbonyl)pyrazolo[1,5-a]pyridin-7-yl]pyrazole-4-sulfonamide] | > 1000 nM | – | –
13 | O=C(c1cc2nc(-c3ccc4c(c3)OCO4)ccc2[nH]1)N1CCCCC1 [Example 173, (5-(benzo[d][1,3]dioxol-5-yl)-1H-pyrrolo[3,2-b]pyridin-2-yl)(piperidin-1-yl)methanone] | ≤ 100 nM | – | –
14 | O=C(c1n[nH]c2c(-c3cccc(Cl)c3)cccc12)N1CCCCC1 [Example 161, (7-(3-chlorophenyl)-1H-indazol-3-yl)(piperidin-1-yl)methanone] | > 1000 nM | – | –

Second part, led by results:

Row | IC50 (human 15-PGDH) | SMILES | fold induction at 1 µM (A549 cells; [1]) | fold induction at 1 µM (A549 cells; A549, 24 h)
15 | ≤ 100 nM | Cn1nc(N)c2ccc(-c3cccc4c(C(=O)N5CCCCC5)cnn34)cc21 [Example 310, [7-(3-amino-1-methyl-indazol-6-yl)pyrazolo[1,5-a]pyridin-3-yl]-(1-piperidyl)methanone] | > 1.5 | –
16 | ≤ 100 nM | O=C(c1cnn2c(-c3ccc(N4CCOC4=O)nc3)cccc12)N1CCCCC1 [Example 316, 3-(5-(3-(piperidine-1-carbonyl)pyrazolo[1,5-a]pyridin-7-yl)pyridin-2-yl)oxazolidin-2-one] | > 1.5 | –
17 | ≤ 100 nM | O=C(Nc1cccnc1)c1ccc(-c2cccc3c(C(=O)N4CCCCC4)cnn23)cn1 [Example 87, 5-(3-(piperidine-1-carbonyl)pyrazolo[1,5-a]pyridin-7-yl)-N-(pyridin-3-yl)picolinamide] | < 1.5 | –
18 | ≤ 100 nM | O=C(NCC1CC1)c1ccc(-c2cccc3c(C(=O)N4CCCCC4)cnn23)cc1 [Example 64, N-(cyclopropylmethyl)-4-(3-(piperidine-1-carbonyl)pyrazolo[1,5-a]pyridin-7-yl)benzamide] | > 1.5 | –
19 | ≤ 100 nM | CN1CCN(C(=O)c2ccc(-c3cccc4c(C(=O)N5CCCCC5)cnn34)cn2)CC1 [Example 83, (4-methylpiperazin-1-yl)(5-(3-(piperidine-1-carbonyl)pyrazolo[1,5-a]pyridin-7-yl)pyridin-2-yl)methanone] | > 1.5 | –
20 | ≤ 100 nM | CC(C)C1CCCN(C(=O)c2cnn3c(-c4ccc5c(c4)C(=O)NC5)cccc23)C1 (stereo not shown) [Example 400, 6-(3-(3-isopropylpiperidine-1-carbonyl)pyrazolo[1,5-a]pyridin-7-yl)isoindolin-1-one] | > 1.5 | –
21 | ≤ 100 nM | Cc1nc(-c2cncc(-c3cccc4c(C(=O)N5CCCCC5)cnn34)c2)no1 [Example 319, (7-(5-(5-methyl-1,2,4-oxadiazol-3-yl)pyridin-3-yl)pyrazolo[1,5-a]pyridin-3-yl)(piperidin-1-yl)methanone] | > 1.5 | –
22 | ≤ 100 nM | O=C(Nc1cccnc1)c1ccc(-c2cccc3c(C(=O)N4CCCCC4)cnn23)cc1 [Example 71, 4-(3-(piperidine-1-carbonyl)pyrazolo[1,5-a]pyridin-7-yl)-N-(pyridin-3-yl)benzamide] | – | –
23 | ≤ 100 nM | O=C(c1cnn2c(-c3ccc4c(c3)OCO4)cccc12)N1CCCCC1 [Example 121, (7-(benzo[d][1,3]dioxol-5-yl)pyrazolo[1,5-a]pyridin-3-yl)(piperidin-1-yl)methanone] | – | –
24 | ≤ 100 nM | Cn1ccc2ccc(-c3cccc4c(C(=O)N5CCCCC5)cnn34)cc2c1=O [Example 135, 2-methyl-7-(3-(piperidine-1-carbonyl)pyrazolo[1,5-a]pyridin-7-yl)isoquinolin-1(2H)-one] | – | –
25 | ≤ 100 nM | O=C(c1cncc(-c2cccc3c(C(=O)N4CCCCC4)cnn23)c1)N1CC(F)(F)C1 [Example 44, (3,3-difluoroazetidin-1-yl)(5-(3-(piperidine-1-carbonyl)pyrazolo[1,5-a]pyridin-7-yl)pyridin-3-yl)methanone] | – | –
26 | ≤ 100 nM | COc1ccc(-c2ccc3c(C(=O)N4CCCCC4)cnn3c2)cc1 [Example 171, (6-(4-methoxyphenyl)pyrazolo[1,5-a]pyridin-3-yl)(piperidin-1-yl)methanone] | – | –
27 | ≤ 100 nM | O=C(c1cnn2c(-c3ccc4[nH]c(=O)ccc4c3)cccc12)N1CCCCC1 [Example 145, 6-(3-(piperidine-1-carbonyl)pyrazolo[1,5-a]pyridin-7-yl)quinolin-2(1H)-one] | – | –
28 | ≤ 100 nM | CN1CCc2cc(-c3cccc4c(C(=O)N5CCCCC5)cnn34)ccc2C1=O [Example 137, 2-methyl-6-(3-(piperidine-1-carbonyl)pyrazolo[1,5-a]pyridin-7-yl)-3,4-dihydroisoquinolin-1(2H)-one] | – | –
29 | ≤ 100 nM | CC(=O)Nc1ccc(-c2cccc3c(C(=O)N4CCCCC4)cnn23)cc1 [Example 97, N-(4-(3-(piperidine-1-carbonyl)pyrazolo[1,5-a]pyridin-7-yl)phenyl)acetamide] | – | –
30 | ≤ 100 nM | Cn1ccc2cc(-c3cccc4c(C(=O)N5CCCCC5)cnn34)ccc2c1=O [Example 139, 2-methyl-6-(3-(piperidine-1-carbonyl)pyrazolo[1,5-a]pyridin-7-yl)isoquinolin-1(2H)-one] | – | –
31 | ≤ 100 nM | O=C(c1cnn2cc(-c3cccc(Cl)c3)ccc12)N1CCCCC1 [Example 170, (6-(3-chlorophenyl)pyrazolo[1,5-a]pyridin-3-yl)(piperidin-1-yl)methanone] | – | –
32 | ≤ 100 nM | COc1ccc(-c2cccc3c(C(=O)N4CCCCC4)cnn23)cc1OC [Example 24, (7-(3,4-dimethoxyphenyl)pyrazolo[1,5-a]pyridin-3-yl)(piperidin-1-yl)methanone] | – | –
